Active and inactive are the calls of the source. No cut-off for these calls is given here.
Tests used:
Assay type in all cases: functional
[1] = system: Aspergillus flavus; experiment: Antifungal activity against Aspergillus flavus at 100 ug/ml after 48 hr by paper disk diffusion method; conditions: read-out: IZ
[2] = system: Aspergillus flavus; experiment: Antifungal activity against Aspergillus flavus at 50 ug/ml after 48 hr by paper disk diffusion method; conditions: read-out: IZ
[3] = system: Rhizopus arrhizus; experiment: Antifungal activity against Rhizopus oryzae at 100 ug/ml after 48 hr by paper disk diffusion method; conditions: for zone of inhibition at 100 µg/mL: read-out: IZ
[4] = system: Rhizopus arrhizus; experiment: Antifungal activity against Rhizopus oryzae at 50 ug/ml after 48 hr by paper disk diffusion method; conditions: for zone of inhibition at 50 µg/mL: read-out: IZ
[5] = system: Aspergillus niger; experiment: Antifungal activity against Aspergillus niger at 100 ug/ml after 48 hr by paper disk diffusion method; conditions: read-out: IZ
[6] = system: Aspergillus niger; experiment: Antifungal activity against Aspergillus niger at 50 ug/ml after 48 hr by paper disk diffusion method; conditions: read-out: IZ
[7] = system: Klebsiella aerogenes; experiment: Antibacterial activity against Enterobacter aerogenesat 50 ug/ml after 24 hr by agar cup-plate method
[8] = system: Bacillus subtilis; experiment: Antibacterial activity against Bacillus subtilis at 50 ug/ml after 24 hr by agar cup-plate method; conditions: read-out: DIZ
[9] = system: Paracoccus denitrificans; experiment: Antibacterial activity against Paracoccus denitrificans at 50 ug/ml after 24 hr by agar cup-plate method; conditions: read-out: DIZ
[10] = system: Pseudomonas syringae; experiment: Antibacterial activity against Pseudomonas syringae at 50 ug/ml after 24 hr by agar cup-plate method; conditions: read-out: DIZ
[11] = system: Bacillus subtilis; experiment: Antibacterial activity against Bacillus subtilis at 4 ug/ml after 24 hr by agar cup-plate method; conditions: read-out: DIZ
[12] = system: Klebsiella aerogenes; experiment: Antibacterial activity against Enterobacter aerogenes at 4 ug/ml after 24 hr by agar cup-plate method; conditions: read-out: DIZ
[13] = system: Paracoccus denitrificans; experiment: Antibacterial activity against Paracoccus denitrificans at 4 ug/ml after 24 hr by agar cup-plate method; conditions: read-out: DIZ
[14] = system: Pseudomonas syringae; experiment: Antibacterial activity against Pseudomonas syringae at 4 ug/ml after 24 hr by agar cup-plate method; conditions: read-out: DIZ

Compound | zone of inhibition at 100 µg/mL [1] [mm] | zone of inhibition at 50 µg/mL [2] [mm] | zone of inhibition at 100 µg/mL [3] [mm] | zone of inhibition at 50 µg/mL [4] [mm] | zone of inhibition at 100 µg/mL [5] [mm] | zone of inhibition at 50 µg/mL [6] [mm] | diameter of the inhibition zone (DIZ) [7] | zone of inhibition at 50 µg/mL [8] [mm] | inhibition zone (IZ) [3] | inhibition zone (IZ) [4] | zone of inhibition at 50 µg/mL [9] [mm] | zone of inhibition at 50 µg/mL [10] [mm] | zone of inhibition at 4 µg/mL [11] [mm] | zone of inhibition at 4 µg/mL [12] [mm] | zone of inhibition at 4 µg/mL [13] [mm] | zone of inhibition at 4 µg/mL [14] [mm]
COC1=CC(=O)C[C@@H](C)[C@]12Oc1c(Cl)c(OC)cc(OC)c1C2=O [GRISEOFULVIN] | > 21 | > 21 | > 21 | > 21 | > 21 | > 21 |  |  |  |  |  |  |  |  |  | 
Cc1ccc(NC2=C(Cl)C(=O)C(Nc3ccc(C)cc3)=C(Cl)C2=O)cc1 | 10 | 3 |  |  | 10 | 3 | inactive | 3 | inactive | inactive | 10 | 3 |  |  |  | 
CCn1cc(C(=O)O)c(=O)c2cc(F)c(N3CCNCC3)cc21 [NORFLOXACIN] |  |  |  |  |  |  |  |  |  |  |  |  | > 21 | > 21 | 13 | > 21
O=C1C(Cl)=C(Nc2ccccc2Cl)C(=O)C(Cl)=C1Nc1ccccc1Cl | 13 | 10 | 13 | 10 | 13 | 10 | 10 mm | 13 |  |  | 13 | 10 |  |  |  | 
Cc1ccccc1NC1=C(Cl)C(=O)C(Nc2ccccc2C)=C(Cl)C1=O | 3 | 3 |  |  | 3 | 3 | 3 mm | 3 | inactive | inactive | 3 | 3 |  |  |  | 
COc1ccc(NC2=C(Cl)C(=O)C(Nc3ccc(OC)cc3)=C(Cl)C2=O)cc1 | 13 | 10 | 3 |  | 10 | 3 | 3 mm | 10 |  | inactive | 13 | 10 |  |  |  | 
O=C1C(Cl)=C(Nc2ccccc2)C(=O)C(Cl)=C1Nc1ccccc1 | 3 | 3 | 3 |  | 10 | 3 | inactive | 3 |  | inactive | 10 | 10 |  |  |  | 
O=C1C(Cl)=C(Nc2ccc(Br)cc2)C(=O)C(Cl)=C1Nc1ccc(Br)cc1 | 13 | 10 | 13 | 3 | > 21 | 10 | 10 mm | 13 |  |  | 13 | 10 |  |  |  | 
O=C1C(Cl)=C(Nc2ccc(Cl)cc2)C(=O)C(Cl)=C1Nc1ccc(Cl)cc1 | 13 | 10 | 10 | 3 | 10 | 10 | 13 mm | 10 |  |  | 10 | 10 |  |  |  | 
O=C1C(Cl)=C(Nc2ccccc2F)C(=O)C(Cl)=C1Nc1ccccc1F | 13 | 10 | 13 | 10 | > 21 | 13 | 13 mm | > 21 |  |  | > 21 | 13 |  |  |  | 
O=C1C(Cl)=C(Nc2ccc(F)cc2)C(=O)C(Cl)=C1Nc1ccc(F)cc1 | 13 | 13 | 13 | 10 | > 21 | 13 | 10 mm | > 21 |  |  | 13 | 13 |  |  |  | 
COc1ccccc1NC1=C(Cl)C(=O)C(Nc2ccccc2OC)=C(Cl)C1=O | 10 | 3 | 10 | 3 | 13 | 10 | 10 mm | 3 |  |  | 13 | 3 |  |  |  | 
